{
  "source": "paper PMC10889512",
  "about": "“Pyrimidine Schiff Bases: Synthesis, Structural Characterization and Recent Studies on Biological Activities” (International Journal of Molecular Sciences, 2024)",
  "key": {"A172 [1]": {"system": "A172", "test": "Microscopic observations, Hoechst 33342 stain, A172", "assay_type": "cell-based, human", "details": "A172, at IC50, 24, 48 and 72 h", "protocol": "In order to obtain information about cells and nuclei morphology, fluorescence microscopy was used. Briefly, after the incubation of A172 and AGS with compound 4b (at three time periods, namely 24, 48, and 72 h) cells were stained with Hoechst 33342 dye, which binds to DNA. Phase-contrast observations were also performed. […] Also, the cell membrane should be intact with a visible halo around the cells. In necrotic cells, the nuclei edges tend to be less clearly defined, and Hoechst 33342 results in a decreased fluorescence signal. This effect can be seen in a1,2 (A172) and b1,2 (AGS). […] To visualize morphological changes which occurred in the treated cells, microscopic observations were conducted using Hoechst 33342 stain. It is a blue fluorescent stain which allows observations of nuclei in eukaryotic cells. Also observations in bright fields were performed. Cells were stained according to the manufacturer’s protocol. Briefly, cells were plated in 12-well plates at a density of 1 × 10^5 cells/well and were incubated for 24 h at 37 °C, 5% CO2 in a humidified atmosphere. Next, cells were treated with 4b at an IC50 and further incubated for 24, 48, and 72 h. For microscopic observations cells were collected, washed with PBS and stained for 15 min with 1 µg/mL Hoechst 33342 dye. […]"}, "E. faecalis 29212": {"system": "E. faecalis 29212", "test": "Antimicrobial activity assay, microdilution", "assay_type": "cell-based, Enterococcus faecalis", "details": "concentration range from 0.5 µg/mL to 256 µg/mL", "protocol": "(§1) In vitro antimicrobial and antifungal activity was screened using microdilution and modified Richard’s medium. The assay was performed for compounds 4a, 4b, 4c, and 4d with seven reference microbial strains from ATTC (E. coli 25922, S. aureus 43300, K. pneumoniae 700603, A. baumannii 19606, P. aeruginosa 27853, E. faecalis 29212, and C. albicans 10231).\n(§2) Seven reference strains from the ATCC collection (Escherichia coli 25922, Staphylococcus aureus 43300, Klebsiella pneumoniae 13883, Acinetobacter baumannii 19606, Pseudomonas aeruginosa 27853, Enterococcus faecalis 29212, and Candida albicans 10231) were used. The assay was performed according to a modified version of Richard et al.’s protocol and ISO standards 20776-1:2019 and 16256:2021 [78, 79]. Microdilution with spectrophotometric measurement was used to calculate MIC50 (minimal inhibitory concentration which decreased the microorganisms’ viability to 50%) values. Briefly, compounds were prepared 100× concentrated in DMSO, and during the whole experiment, they were diluted to 1× with TSB. Serial dilutions of tested compounds were made directly on plates at a concentration range of 0.5 to 256 µg/mL. Microorganisms were incubated for 24 h at 37 °C (bacteria) or 25 °C (yeast) on Petri dishes with TSA. The bacteria/yeast suspensions were prepared at a density 5 × 10^5 CFU/mL (for bacteria) or 0.5–2.5 × 10^5 CFU/mL (for yeast) with TSB. Also, appropriate controls were contained in the experiment: the positive control consisted of a specific strain in TSB, and the negative control was TSB alone. To ensure that used strains were not modified and were still responding to antibacterial/antifungal compounds established by EUCAST, additional tests were conducted with levofloxacin, gentamicin, and amphotericin B. Microplates were incubated on a shaker for 24 h at 37 ± 1 °C or 25 ± 1 °C for the bacteria and yeast strains, respectively. After the incubation, spectrophotometric measurement was performed at 580 nm. MIC50 was calculated by comparing the results obtained for experimental sets with positive controls. Next, 50 µL aliquots of 1% (m/v) TTC solution were added to each well. The plates were incubated on the shaker for 24 h at 37/25 °C. In living microbial cells, colourless TTC is converted into red formazan crystals, which allows for visual observation and MBC/MFC (minimal bactericidal/fungicidal concentration) value assessment."}, "E. coli 25922": {"system": "E. coli 25922", "test": "Antimicrobial activity assay, microdilution", "assay_type": "cell-based, Escherichia coli", "details": "concentration range from 0.5 µg/mL to 256 µg/mL", "protocol": "as §1, §2"}, "A172 [2]": {"system": "A172", "test": "Neutral red uptake assay on A172", "assay_type": "cell-based, human", "details": "A172, 72 h treatment", "protocol": "Based on the results obtained for the RPTEC cell line, the following concentrations of 4b–d were chosen to be applied to neoplastic cell lines: 0.1, 1, 10, 25, 50, and 100 µM. A172, AGS, CaCo-2, HeLa, and HepG2 cancer cell lines were used to perform a neutral red uptake assay. The obtained results were compared with a negative control (cell lines incubated without tested compounds), and half-maximal inhibitory concentration (IC50) values were calculated. Cell lines were plated in 96-well plates at a density of 1 × 10^4 cells/well. After 24 h incubation, which allowed the cells to attach and start to proliferate, the culture media were replaced with 4a–d dissolved in the appropriate medium at concentrations of 1, 10, 50, 100, 150 and 200 µM. […] Negative (1% DMSO in medium) and positive (1 µM staurosporine) controls were also included. Plates were incubated at 37 °C for 24, 48, and 72 h before the neutral red uptake assay. The neutral red uptake assay was performed as described by Repetto et al.. Briefly, the medium from all wells was discarded, the attached cells were washed with 100 µL PBS, and then 100 µL of neutral red working solution in medium (40 µg/mL) was added to each well. The neutral red solution was incubated overnight in the same conditions as the cells and centrifuged before being added to the cells. The plates were incubated for at least 2 h at 37 °C, 5% CO2, in a humidified atmosphere. Next, the neutral red medium was removed, and the cells were washed with 100 µL PBS. A 100 µL quantity of destain solution consisting of 50% ethanol, 1% glacial acetic acid, and deionized water was added to each well. Plates were incubated for 30 min with constant shaking on a horizontal shaker at 37 °C. Absorption was measured at 540 nm excitation. The cells’ viability was calculated by comparing results from experimental sets with negative controls according to the formula: % viability=ODtest substance−ODblind/ODnegative control−ODblind×100"}},
  "data": [
    {"smiles": "Cc1nc(-c2ccccc2)nc(Nc2ccc(F)cc2)c1C=Nc1cccc(Cl)c1", "note": "[compound 4b, 5-{[(3-chlorophenyl)imino]methyl}-N-(4-fluorophenyl)-6-methyl-2-phenylpyrimidin-4-amine]", "values": [
      {"measurement": "cell and nuclei morphology", "setting": "A172 [1]", "value": "leads to necrosis"},
      {"measurement": "MIC and MBC/MFC activity", "setting": "E. faecalis 29212", "value": "Neither MIC nor MBC/MFC activity was observed"},
      {"measurement": "MIC and MBC/MFC activity", "setting": "E. coli 25922", "value": "Neither MIC nor MBC/MFC activity was observed"},
      {"measurement": "IC50", "setting": "A172 [2]", "value": 63.4, "unit": "µM"},
      {"measurement": "IC50", "setting": "A172 [2]; Homo sapiens, A 172, 72 h", "value": 63.4, "unit": "µM"}
    ]}
  ]
}
